Results as given in patent publication US9321722B2, “Bis-indolic derivatives, their uses in particular as antibacterials” (UNIVERSITE JOSEPH FOURIER, priority 2011, dated 2016).
In brackets after ≈: the same amount, converted by molar mass.

Key:
[1] = system: S. aureus ATCC 106414 (VISA); test: MIC microdilution (Table I-1); type: cell-based, Staphylococcus aureus; conditions: Staphylococcus aureus, read after 18 hours, read-out: MIC
Procedure: (§1) The microdilution method recommended by the Clinical and Laboratory Standard Institute [M07-A8, Vol. 29, N^o 2] was used. The activity of indolic compounds was tested against 29 bacterial strains belonging to 17 different species and 12 different genera (Staphylococcus, Streptococcus, Enterococcus, Listeria, Bacillus, Haemophilus, Escherichia, Klebsiella, Enterobacter, Serratia, Pseudomonas, and Acinetobacter). Bacterial inocula were prepared in Mueller Hinton broth (MH2, bioMerieux, Marcy L'Etoile, France), supplemented with 10% sheep blood for fastidious species (i.e., Streptococcus pneumoniae and Haemophilus influenzae). They were dispensed in 96 well microtiter plates (5×10^5 CFU/ml of final inoculum). Indolic compounds were added to the wells as to obtain two-fold serial concentrations (0.50-128 mg/L of final concentrations). Plates were incubated at 37° C. in ambient air, or at 37° C. in 5% CO2 enriched atmosphere for fastidious species. […] Drug-free cultures served as growth controls. Cultures receiving gentamicin, ciprofloxacin or cefotaxime served as positive controls.

S. aureus ATCC 29213 = test: MIC microdilution (Table I-1); type: cell-based, Staphylococcus aureus; conditions: Staphylococcus aureus, ATCC29213, read after 18 hours, read-out: MIC
Procedure: as §1

[2] = system: S. aureus ATCC 33592 (MRSA); test: MIC microdilution (Table I-1); type: cell-based, Staphylococcus aureus; conditions: Staphylococcus aureus, read after 18 hours, read-out: MIC
Procedure: as §1

S. aureus ATCC 6538 = test: MIC microdilution (Table I-1); type: cell-based, Staphylococcus aureus; conditions: Staphylococcus aureus, ATCC6538, read after 18 hours, read-out: MIC
Procedure: as §1

S. aureus ATCC 9144 = test: MIC microdilution (Table I-1); type: cell-based, Staphylococcus aureus; conditions: Staphylococcus aureus, ATCC9144, read after 18 hours, read-out: MIC
Procedure: as §1

S. aureus CIP 103428 = test: MIC microdilution (Table I-1); type: cell-based, Staphylococcus aureus; conditions: Staphylococcus aureus, CIP103428, read after 18 hours, read-out: MIC
Procedure: as §1

[3] = system: S. aureus CIP 65.25 (MRSA); test: MIC microdilution (Table I-1); type: cell-based, Staphylococcus aureus; conditions: Staphylococcus aureus, read after 18 hours, read-out: MIC
Procedure: as §1

S. aureus CIP 65.6 = test: MIC microdilution (Table I-1); type: cell-based, Staphylococcus aureus; conditions: Staphylococcus aureus, CIP65, read after 18 hours, read-out: MIC
Procedure: as §1

S. aureus SA-1199B = test: MIC microdilution (Table I-1); type: cell-based, Staphylococcus aureus; conditions: Staphylococcus aureus, SA1199B, 18 h
Procedure: as §1

[4] = system: S. epidermidis ATCC 12228; test: MIC microdilution (Table I-1); type: cell-based, Staphylococcus epidermidis; conditions: Staphylococcus epidermidis, ATCC12228, read after 18 hours, read-out: MIC
Procedure: as §1

[5] = system: S. epidermidis CIP 103627; test: MIC microdilution (Table I-1); type: cell-based, Staphylococcus epidermidis; conditions: Staphylococcus epidermidis, CIP103627, read after 18 hours, read-out: MIC
Procedure: as §1

S. epidermidis CIP 81.55 = test: MIC microdilution (Table I-1); type: cell-based, Staphylococcus epidermidis; conditions: Staphylococcus epidermidis, CIP81, read after 18 hours, read-out: MIC
Procedure: as §1

E. faecalis ATCC 29212 = test: MIC microdilution (Table I-1); type: cell-based; conditions: Enterococcus faecalis, ATCC29212, read after 18 hours, read-out: MIC
Procedure: as §1

E. faecium CIP 54.32 = test: MIC microdilution (Table I-1); type: cell-based; conditions: Enterococcus faecium, CIP54, read after 18 hours, read-out: MIC
Procedure: as §1

[6] = system: Enterobacter cloacae ATCC 13047; test: MIC microdilution (Table I-1); type: cell-based; conditions: ATCC13047, read after 18 hours
Procedure: as §1

[7] = system: Haemophilus influenzae ATCC 49766; test: MIC microdilution (Table I-1); type: cell-based; conditions: ATCC49766; Haemophilus influenzae ATCC 49766; read after 18 hours; read-out: MIC
Procedure: as §1

[8] = system: Pseudomonas aeruginosa CIP 5933; test: MIC microdilution (Table I-1); type: cell-based; conditions: CIP5933, read after 18 hours
Procedure: as §1

[9] = system: S. agalactiae (group B) ATCC 12400; test: MIC microdilution (Table I-1); type: cell-based; conditions: Streptococcus agalactiae, ATCC12400, read after 18 hours, read-out: MIC
Procedure: as §1

S. aureus ATCC 25923 = test: MIC microdilution (Table I-1); type: cell-based; conditions: Staphylococcus aureus, ATCC25923, read after 18 hours
Procedure: as §1

S. mitis CIP 103335 = test: MIC microdilution (Table I-1); type: cell-based; conditions: Streptococcus mitis, CIP103335, read after 18 hours, read-out: MIC
Procedure: as §1

S. pneumoniae ATCC 49619 = test: MIC microdilution (Table I-1); type: cell-based; conditions: Streptococcus pneumoniae, ATCC49619, read after 18 hours
Procedure: as §1

[10] = system: S. pyogenes (group A) CIP 104226; test: MIC microdilution (Table I-1); type: cell-based; conditions: Streptococcus pyogenes, CIP104226, read after 18 hours, read-out: MIC
Procedure: as §1

[11] = system: Serratia marcescens CIP 103551; test: MIC microdilution (Table I-1); type: cell-based; conditions: CIP103551, read after 18 hours
Procedure: as §1

S. pneumoniae ATCC 6303 = test: MIC microdilution (Table I-1); type: cell-based, Streptococcus pneumoniae; conditions: Streptococcus pneumoniae, ATCC6303, read after 18 hours, read-out: MIC
Procedure: as §1

[12] = system: HCT116 (human colon tumor); test: In vitro cytotoxicity; type: cell-based; conditions: for inhibition at 10 µM: HCT-116, HCT116, 10^−5 M, read-out: % of cellular growth inhibition; for inhibition at 1 µM: HCT-116, HCT116, 10^−6 M, read-out: % of cellular growth inhibition (converted)
Procedure: (§2) In vitro cytotoxicity was assayed on three cell lines—KB (human mouth carcinoma), MCR5 (human lung fibroblast) and HCT116 (human colon tumor). Results are presented in table III as % of cellular growth inhibition in presence of 10^−5 M and 10^−6 M of the tested bis-indolic derivatives.

[13] = system: KB (human mouth carcinoma); test: In vitro cytotoxicity; type: cell-based; conditions: KB; for inhibition at 10 µM: 10^−5 M, read-out: % of cellular growth inhibition; for inhibition at 1 µM: 10^−6 M, read-out: % of cellular growth inhibition (converted)
Procedure: as §2

[14] = system: MRC5 (human lung fibroblast); test: In vitro cytotoxicity; type: cell-based; conditions: for inhibition at 10 µM: MRC5, 10^−5 M, read-out: % of cellular growth inhibition; for inhibition at 1 µM: MRC5, 10^−6 M, read-out: % of cellular growth inhibition (converted)
Procedure: as §2

| Structure (SMILES) | MIC [1] [µg/mL] | MIC (S. aureus ATCC 29213) [µg/mL] | MIC [2] [µg/mL] | MIC (S. aureus ATCC 6538) [µg/mL] | MIC (S. aureus ATCC 9144) [µg/mL] | MIC (S. aureus CIP 103428) [µg/mL] | MIC [3] [µg/mL] | MIC (S. aureus CIP 65.6) [µg/mL] | MIC (S. aureus SA-1199B) [µg/mL] | MIC [4] [µg/mL] | MIC [5] [µg/mL] | MIC (S. epidermidis CIP 81.55) [µg/mL] | MIC (E. faecalis ATCC 29212) [µg/mL] | MIC (E. faecium CIP 54.32) [µg/mL] | MIC [6] [µg/mL] | MIC [7] [µg/mL] | MIC [8] [µg/mL] | MIC [9] [µg/mL] | MIC (S. aureus ATCC 25923) [µg/mL] | MIC (S. mitis CIP 103335) [µg/mL] | also measured |
| --- | --- | --- | --- | --- | --- | --- | --- | --- | --- | --- | --- | --- | --- | --- | --- | --- | --- | --- | --- | --- | --- |
| CC(NC(=O)C(=O)c1c[nH]c2ccc(Br)cc12)c1c[nH]c2ccc(Br)cc12 (stereo not drawn) [Compound 5, 2-(5-Bromo-1H-indol-3-yl)-N-(1-(5-bromo-1H-indol-3-yl)ethyl)-2-oxoacetamide] | 1 (≈ 2.04 µM) | 1 (≈ 2.04 µM) | 1 (≈ 2.04 µM) | 1 (≈ 2.04 µM) | 1 (≈ 2.04 µM) | 1 (≈ 2.04 µM) | 1 (≈ 2.04 µM) | 2 (≈ 4.09 µM) | 2 (≈ 4.09 µM) | 2 (≈ 4.09 µM) | 2 (≈ 4.09 µM) | 2 (≈ 4.09 µM) | 128 (≈ 262 µM) | 64 (≈ 131 µM) | > 128 | 32 (≈ 65.4 µM) | > 128 | 64 (≈ 131 µM) | 1 (≈ 2.04 µM) | 64 (≈ 131 µM) | MIC (S. pneumoniae ATCC 49619): 32 µg/mL (≈ 65.4 µM); MIC [10]: 32 µg/mL (≈ 65.4 µM); MIC [11]: > 128 µg/mL; MIC (S. pneumoniae ATCC 6303): 32 µg/mL (≈ 65.4 µM); inhibition at 10 µM [12]: 80 ± 3%; inhibition at 1 µM [12]: 10%; inhibition at 10 µM [13]: 91 ± 3%; inhibition at 1 µM [13]: 0%; inhibition at 10 µM [14]: 85 ± 2%; inhibition at 1 µM [14]: 6% |
| CC(C)(C)OC(=O)N1CCN(C(=O)C(=O)c2c[nH]c3ccccc23)C(c2c[nH]c3ccccc23)C1 (stereo not drawn) [Compound 6c, tert-Butyl 4-(2-(1H-indol-3-yl)-2-oxoacetyl)-3-(1H-indol-3-yl)piperazine-1-carboxylate] | > 128 | > 128 | > 128 | > 128 | > 128 | > 128 | > 128 | > 128 | > 128 | > 128 | > 128 | > 128 | > 128 | > 128 | > 128 | > 128 | > 128 | > 128 | > 128 | > 128 | MIC (S. pneumoniae ATCC 49619): > 128 µg/mL; MIC [10]: > 128 µg/mL; MIC [11]: > 128 µg/mL; MIC (S. pneumoniae ATCC 6303): > 128 µg/mL; inhibition at 10 µM [12]: 53 ± 3%; inhibition at 1 µM [12]: 8%; inhibition at 10 µM [13]: 66 ± 8%; inhibition at 1 µM [13]: 0%; inhibition at 10 µM [14]: 6 ± 16%; inhibition at 1 µM [14]: 0% |
| O=C(C(=O)N1CCCCC1c1c[nH]c2ccc(Br)cc12)c1c[nH]c2ccc(Br)cc12 (stereo not drawn) [Compound 6d, 1-(5-Bromo-1H-indol-3-yl)-2-(2-(5-bromo-1H-indol-3-yl)piperidin-1-yl)ethane-1,2-dione] | > 128 | 2 to 4 (≈ 3.78 to 7.56 µM) | > 128 | > 128 | > 128 | > 128 | > 128 | > 128 | > 128 | > 128 | > 128 | > 128 | > 128 | > 128 | > 128 | > 128 | > 128 | > 128 | > 128 | > 128 | MIC (S. pneumoniae ATCC 49619): > 128 µg/mL; MIC [10]: > 128 µg/mL; MIC [11]: > 128 µg/mL; MIC (S. pneumoniae ATCC 6303): > 128 µg/mL; inhibition at 10 µM [12]: 41 ± 4%; inhibition at 1 µM [12]: 4%; inhibition at 10 µM [13]: 53 ± 5%; inhibition at 1 µM [13]: 0%; inhibition at 10 µM [14]: 0%; inhibition at 1 µM [14]: 0% |
